Test results: patent US20110190365A1, “Insecticidal 4-phenyl-1H-pyrazoles” (Bayer Crop Science AG, priority 2008, published 2011)
Read-outs that look alike come from different tables or passages of the source.

Legend:
[1] = log P by HPLC on a reversed-phase column (C18), EEC Directive 79/831 Annex V.A8; type: physicochemical
Experimental: The stated log P values were determined in accordance with EEC Directive 79/831 Annex V.A8 by HPLC (High Performance Liquid Chromatography) using a reversed-phase column (C18).

[2] = tested on: caterpillars of the armyworm (Spodoptera frugiperda); experiment: Spodoptera frugiperda test (SPODFR spray treatment); type: in vivo; details: application rate 500 g/ha, maize leaf discs sprayed, after 7 days
Experimental: Spodoptera frugiperda Test (SPODFR Spray Treatment)
(§1) Solvent: 78.0 parts by weight of acetone • • 1.5 parts by weight of dimethylformamide Emulsifier: 0.5 part by weight of alkylaryl polyglycol ether
(§2) To produce a suitable preparation of active compound, 1 part by weight of active compound is mixed with the stated amounts of solvent and emulsifier, and the concentrate is diluted with emulsifier-containing water to the desired concentration.
Discs of maize leaves (Zea mays) are sprayed with an active compound preparation of the desired concentration and, after drying, populated with caterpillars of the armyworm (Spodoptera frugiperda).
After 7 days, the effect in % is determined 100% means that all caterpillars have been killed; 0% means that none of the caterpillars have been killed.

[3] = tested on: stage 3 Spodoptera litura larvae; experiment: Spodoptera litura larvae test; type: in vivo; details: active compound concentration 500 ppm, sweet potato leaf dip, after 7 days, mean of two dishes
Experimental: Spodoptera litura Larvae Test
(§3) Solvent: 3 parts by weight of dimethylformamide Emulsifier: 1 part by weight of polyoxyethylene alkylphenyl ether
To prepare a suitable active compound, 1 part by weight of active compound is mixed with the stated amount of solvent comprising the stated amount of emulsifier, and the mixture is diluted with water to the specified concentration.
Sweet potato leaves are dipped into the sample solution diluted with water to the specified concentration and the leaves treated in this manner are, after the solution adhering to the leaves has dried in air, transferred into a laboratory dish which has a diameter of 9 cm and in which there are 10 stage 3 Spodoptera litura larvae. The dish is then placed in a temperature-controlled room at 25° C., sweet potato leaves are then added to the dish on day two and day four and the number of dead insects is determined after 7 days and used to calculate the insecticidal ratio.
The results are the means of two laboratory dishes per group in this test.

[4] = tested on: stage 2 Aulacophora femoralis larvae; experiment: Aulacophora femoralis test (spray test); type: in vivo; details: active compound concentration 500 ppm, cucumber leaf dip, after 7 days
Experimental: Aulacophora femoralis Test (Spray Test)
as §3
To prepare a suitable active compound formulation, 1 part by weight of the active compound is mixed with the stated amount of solvent comprising the stated amount of emulsifier, and the mixture is diluted with water to a specified concentration.
Cucumber leaves are dipped into a dilute aqueous solution of an active compound at the specified concentration prepared in the same manner as in the test described above, air-dried and transferred into a plastic dish with sterilized black soil. 5 stage 2 Aulacophora femoralis larvae are transferred into this dish. The dish is then placed into a temperature-controlled room at 25° C. After 7 days, the number of dead larvae is counted to calculate the mortality.

[5] = tested on: larvae of the mustard beetle (Phaedon cochleariae); experiment: Phaedon cochleariae test (PHAECO spray treatment); type: in vivo; details: application rate 500 g/ha, Chinese cabbage leaf discs sprayed, after 7 days; for pest or weed control at 500 g/ha: Phaedon cochleariae, foliar, 168 h, read-out: effect in % (beetle larvae killed)
Experimental: Phaedon cochleariae Test (PHAECO Spray Treatment)
as §1, §2
Discs of Chinese cabbage (Brassica pekinensis) are sprayed with an active compound preparation of the desired concentration and, after drying, populated with larvae of the mustard beetle (Phaedon cochleariae).
After 7 days, the effect in % is determined. 100% means that all beetle larvae have been killed; 0% means that none of the beetle larvae have been killed.

[6] = tested on: green peach aphid (Myzus persicae); experiment: Myzus persicae test (MYZUPE spray treatment); type: in vivo; details: application rate 500 g/ha, Chinese cabbage leaf discs sprayed, after 6 days
Experimental: Myzus persicae Test (MYZUPE Spray Treatment)
as §1, §2
Discs of Chinese cabbage (Brassica pekinensis) infected by all stages of the green peach aphid (Myzus persicae) are sprayed with an active compound preparation of the desired concentration.
After 6 days, the effect in % is determined. 100% means that all of the aphids have been killed; 0% means that none of the aphids have been killed.

[7] = HPLC, reversed-phase C18, mobile phase with formic acid, read-out: log P (HCOOH)
[8] = HPLC, reversed-phase C18, mobile phase with formic acid

CSc1cc(-n2nc(C(F)(F)F)c(-c3cc(Cl)cc(Cl)c3)c2N)ccc1C(=O)NCc1ccccn1 [I-A-Q2-409]
log P (HCOOH) ([1]; HCOOH): I-A-Q2-409: log P (HCOOH): 3.38 | effect in % (caterpillars killed) [2]: 83%

CCOC(=O)c1ccc(-n2cc(-c3cc(Cl)cc(Cl)c3)c(C(F)(F)F)n2)cc1C(F)(F)F [I-A-Q4-001, Ethyl 4-[4-(3,5-dichlorophenyl)-3-trifluoromethylpyrazol-1-yl]-2-trifluoromethylbenzoate]
kill of the insect larvae [3]: 80%

CC(NC(=O)c1ccc(-n2cc(-c3cc(Cl)cc(Cl)c3)c(C(F)(F)F)n2)cc1C(F)(F)F)C(F)(F)F (centres unmarked) [I-A-Q2-005]
kill of the insects [4]: 100% | kill of the insect larvae [3]: 100%

COC(=O)c1ccc(-n2nc(C(F)(F)F)c(-c3cc(Cl)cc(Cl)c3)c2N)cc1C [I-A-Q4-011, Methyl 4-[5-amino-4-(3,5-dichlorophenyl)-3-trifluoromethylpyrazol-1-yl]-2-methylbenzoate]
chromatographic logP [1, 7]: 5.08 | pest or weed control at 500 g/ha [5]: > 80%

CCS(=O)(=O)c1ncn(-c2ccc(-n3nc(C(F)(F)F)c(-c4cc(Cl)cc(Cl)c4)c3N)cc2C#N)n1 [I-A-Q1-087]
log P (HCOOH) [1, 8]: I-A-Q1-087: log P (HCOOH): 3.78 | effect in % (beetle larvae killed) [5]: 100%

O=C(NCc1ccccn1)c1ccc(-n2cc(-c3cc(Cl)cc(Cl)c3)c(C(F)(F)F)n2)cc1C(F)(F)F [I-A-Q2-001]
log P (pH 2) ([1]; pH 2): I-A-Q2-001: log P (pH 2): 4.02 | log P (pH 7.5) ([1]; pH 7.5): log P (pH 7.5): 4.74 | kill of the insect larvae [3]: 100%

CC[S+]([O-])c1ccn(-c2ccc(-n3nc(C(F)(F)F)c(-c4cc(Cl)cc(Cl)c4)c3N)cc2C#N)n1 (centres unmarked) [I-A-Q1-090]
log P (HCOOH) [1, 8]: I-A-Q1-090: log P (HCOOH): 3.47 | effect in % (beetle larvae killed) [5]: 100%

N#Cc1cc(-n2nc(C(F)(F)F)c(-c3cc(Cl)cc(C(F)(F)F)c3)c2N)ccc1-n1nc[nH]c1=O [I-A-Q1-002, 5-[5-Amino-4-(3-chloro-5-trifluoromethylphenyl)-3-trifluoromethylpyrazol-1-yl]-2-(5-oxo-4,5-dihydro[1,2,4]triazol-1-yl)benzonitrile]
chromatographic logP [1, 7]: 3.45 | pest or weed control at 500 g/ha [5]: > 80%

N#Cc1cc(-n2nc(C(F)(F)F)c(-c3cc(Cl)cc(Cl)c3)c2N)ccc1-n1cnc(Cl)n1 [I-A-Q1-091]
log P (HCOOH) [1, 8]: I-A-Q1-091: log P (HCOOH): 4.17 | effect in % (caterpillars killed) [2]: 100% | effect in % (beetle larvae killed) [5]: 100%

Cc1cc(-n2nc(C(F)(F)F)c(-c3cc(Cl)cc(Cl)c3)c2Cl)ccc1C(=O)NC(C)C(F)(F)F (centres unmarked) [I-A-Q2-022, 4-[5-Chloro-4-(3,5-dichlorophenyl)-3-trifluoromethylpyrazol-1-yl]-2-methyl-N-(2,2,2-trifluoro-1-methylethyl)benzamide]
chromatographic logP [1, 7]: 5.59 | pest or weed control at 500 g/ha [5]: > 80%

Cc1cc(-n2nc(C(F)(F)F)c(-c3cc(Cl)cc(Cl)c3)c2Br)ccc1C(=O)NC(C)C(F)(F)F (centres unmarked) [I-A-Q2-024, 4-[5-Bromo-4-(3,5-dichlorophenyl)-3-trifluoromethylpyrazol-1-yl]-2-methyl-N-(2,2,2-trifluoro-1-mmethylethyl)benzamide]
chromatographic logP [1, 7]: 5.53 | pest or weed control at 500 g/ha [5]: > 80%

Cc1cc(-n2nc(C(F)(F)F)c(-c3cccc(Br)c3)c2N)ccc1C(=O)NCc1ncccn1 [I-A-Q2-417]
log P (HCOOH) ([1]; HCOOH): I-A-Q2-417: log P (HCOOH): 3.13 | effect in % (beetle larvae killed) [5]: 100%

O=C(NCC(F)(F)F)c1ccc(-n2cc(-c3cc(Cl)cc(Cl)c3)c(C(F)(F)F)n2)cc1C(F)(F)F [I-A-Q2-002, 4-[4-(3,5-Dichlorophenyl)-3-trifluoromethylpyrazol-1-yl]-N-(2,2,2-trifluoroethyl)-2-trifluoromethylbenzamide]
kill of the insects [4]: 100% | chromatographic logP ([1]; pH 2, read-out: log P (pH 2)): 5.16 | chromatographic logP ([1]; pH 7.5, read-out: log P (pH 7.5)): 5.14 | kill of the insect larvae [3]: 100%

O=C(NCC(F)(F)F)c1ccc(-n2cc(-c3cc(C(F)(F)F)cc(C(F)(F)F)c3)c(C(F)(F)F)n2)cc1C(F)(F)F [I-A-Q2-010]
kill of the insects [4]: 100% | kill of the insect larvae [3]: 100%

O=C(NCc1ccccn1)c1ccc(-n2cc(-c3cc(Cl)cc(Cl)c3)c(C(F)(F)F)n2)cc1[N+](=O)[O-] [I-A-Q2-003]
kill of the insect larvae [3]: 100%

CC(NC(=O)c1ccc(-n2cc(-c3cc(Cl)cc(Cl)c3)cn2)cc1C(F)(F)F)C(F)(F)F (centres unmarked) [I-A-Q2-006]
kill of the insect larvae [3]: 100%

Cc1cc(-n2nc(C(F)(F)F)c(-c3ccc(Cl)cc3Cl)c2N)ccc1C(=O)NC(C)c1ccccn1 (centres unmarked) [I-A-Q2-412]
log P (HCOOH) ([1]; HCOOH): I-A-Q2-412: log P (HCOOH): 3.29 | effect in % (beetle larvae killed) [5]: 100%

Cc1cc(-n2nc(C(F)(F)F)c(-c3ccccc3Br)c2N)ccc1C(=O)NC(C)c1ccccn1 (centres unmarked) [I-A-Q2-420]
log P (HCOOH) ([1]; HCOOH): I-A-Q2-420: log P (HCOOH): 2.81 | effect in % (beetle larvae killed) [5]: 100%

Cc1cc(-n2nc(C(F)(F)F)c(-c3ccccc3Cl)c2N)ccc1C(=O)NCc1ncccn1 [I-A-Q2-414]
log P (HCOOH) ([1]; HCOOH): I-A-Q2-414: log P (HCOOH): 2.72 | effect in % (beetle larvae killed) [5]: 100%

Cc1cc(-n2nc(C(F)(F)F)c(-c3cc(Cl)cc(Cl)c3)c2N)ccc1C(=O)NCc1ccccn1 [I-A-Q2-012, 4-[5-Amino-4-(3,5-dichlorophenyl)-3-trifluoromethylpyrazol-1-yl]-2-methyl-N-pyridin-2-ylmethylbenzamide]
chromatographic logP [1, 7]: 3.35 | pest or weed control at 500 g/ha [5]: > 80%

O=[N+]([O-])c1ccc(-n2cc(-c3cc(Cl)cc(Cl)c3)c(C(F)(F)F)n2)cc1C(F)(F)F [I-A-Q4-006]
kill of the insect larvae [3]: 80%

N#Cc1cc(-n2nc(C(F)(F)F)c(-c3cc(Cl)cc(Cl)c3)c2N)ccc1-n1cnc(S)n1 [I-A-Q1-089]
log P (HCOOH) [1, 8]: I-A-Q1-089: log P (HCOOH): 3.53 | effect in % (beetle larvae killed) [5]: 83% | effect in % (aphids killed) [6]: 90%

Cc1cc(-n2nc(C(F)(F)F)c(-c3cc(Cl)cc(Cl)c3)c2I)ccc1C(=O)NCc1ccccn1 [I-A-Q2-025, 4-[4-(3,5-Dichlorophenyl)-5-iodo-3-trifluoromethylpyrazol-1-yl]-2-methyl-N-pyridin-2-ylmethylbenzamide]
chromatographic logP [1, 7]: 4.29 | pest or weed control at 500 g/ha [5]: > 80%
